Data from US20070207120A1, “Selective Killing Of Cancer Cells By Induction Of Acetyltransferase Via Tnf-Alpha And Il-6” (priority 2004, published 2007).

Key:
Assay type in all cases: cell-based, human
[1] = system: transformed WI38 VA13 cells; experiment: Cytokine and deacetylase inhibitor treatment, transformed cells; settings: for efficacy in (selective) cell killing of transformed cells: alone and in combination with cytokine treatment, butyric acid 5 mM, TSA, CBHA 2.5 μg/ml, SAHA 5 μg/ml
Procedure: (§1) Human cells WI38 (ATCC number CCL-75), WI38 VA13 (ECACC number 85062512), SaOS2 (ECACC number 89050205), U20S (ATCC number HTB-96), HeLa (CCL-2), HEK 293 (ATCC number CRL-1573) and Hs68 (ATCC number CRL-1635) were obtained from ATCC, ECACC or CR-UK cell services. All cells were cultured as monolayers in 10% foetal bovine serum in Dulbecco's minimal essential medium at 37° C. in 5% CO2, except SaOS2 cells which were cultured in McCoy's 5a medium supplemented with 1.5 mM L-glutamine and 15% foetal bovine serum. VA13 cells are WI38 primary fibroblasts transformed with SV40 virus and therefore share the same genetic background. To measure cell viability and total cell number, cells in suspension and adherent cells were collated and analysed by resuspending with a known concentration of CaliBRITE unlabelled beads (Becton Dickinson) plus propidium iodide and counting the number of live and dead cells per 3000 beads using a FACSCalibur flow cytometer (Becton Dickinson). Alternatively, an automated trypan blue assay using a Vi-Cell XR Cell Viability Analyzer (Beckman Coulter) was employed. Cells were treated with Interleukin 6 (20 ng/ml) for 24 hours, followed by addition of antibody 80M2 (1 μg/ml), which modulates TNFα receptor 2, and TNFα (10 ng/ml). TNFα was added to the cell culture medium 30 minutes after addition of 80M2. […] All agents were added to the cell culture medium in liquid form. […] For cytokine treatment in combination with deacetylase inhibitors, cells were harvested and counted 48 hours after addition of deacetylase inhibitor.

MCM3AP = experiment: Western blot of MCM3AP expression after cytokine treatment; settings: HEK 293 cells; IL6 20 ng/ml, 24 hours later TNFα 10 ng/ml and 80M2 1 μg/ml; following three days
Procedure: HEK 293 cells (ATCC number CRL-1573) and Hs68 cells (ATCC number CRL-1635) were cultured as monolayers in 10% foetal calf serum in Dulbecco's minimal essential medium at 37° C. in 10% or 5% CO2 respectively, according to recommendations by the American Tissue Culture Collection. Stable cell lines of HEK 293 cells expressing inducible wild-type or mutant MCM3AP were made by stable transfection of vectors previously described by Takei et al. (2,3). Expression of MCM3AP was induced in these stable cell lines by treatment with doxycycline.
Exponentially growing cells were harvested and fractionated into soluble and structure-bound fractions. Cells were harvested by scraping adherent cells, pelleted by centrifugation at 200 g for 4 minutes and washed in cold PBS. The cell pellet was resuspended in cold hypotonic buffer (10 mM HEPES-KOH pH 7.3, 5 mM KCl, 1.5 mM MgCl2, 1 mM DTT, 1% NP40 and protease inhibitors) and incubated on ice for 15 minutes. Cells were centrifuged at 10,000 rpm for 5 minutes and the supernatant stored at −80° C. as the soluble protein fraction. […]
Samples were separated by 7.5% SDS-PAGE and transferred to PVDF membrane at a constant voltage of 10V for 1 hour. […] The bound antibodies were detected with peroxidase-conjugated secondary antibody (Amersham Biosciences) and protein bands visualised by the […] method using ECL or ECLplus (Amersham Biosciences). […]

normal WI38 cells = experiment: Cytokine and deacetylase inhibitor treatment, normal cells; settings: for effect on / killing of normal WI38 cells: TSA, CBHA 2.5 μg/ml; for cell death in normal cells: in combination with cytokine treatment (TSA 400 nM; SAHA 5 μg/ml)
Procedure: as §1

HEK 293 cells = experiment: Apoptosis (annexin V) and attached cell number after cytokine treatment; settings: HEK 293 attached cells; 24 hours after addition of TNFα and 80M2
Procedure: Cells were treated with Interleukin 6 (20 ng/ml) for 24 hours, followed by addition of antibody 80M2 (1 μg/ml), which modulates TNFα receptor 2, and TNFα (10 ng/ml). TNFα was added to the cell culture medium 30 minutes after addition of 80M2. All agents were added to the cell culture medium in liquid form. Cells were harvested after the indicated number of days of treatment, where ‘time zero’ corresponds to the point of addition of Interleukin 6.
Cells were assayed for apoptosis by Annexin V staining (Oncogene, Annexin V-FITC or Annexin V-Biotin apoptosis detection kit) and TUNEL assay (BD Biosciences, ApoAlert DNA fragmentation assay kit). Cells were assayed for Annexin V and TUNEL assay by flow cytometry, according to manufacturer's instructions. Attached cells were harvested and counted using a haemocytometer to give total attached cell number.
We examined the cell fate outcome of upregulating MCM3AP by cytokine treatment in HEK 293 cells. Treatment of HEK 293 cells with the same combination of cytokines that upregulates MCM3AP induces cell death by apoptosis (FIG. 4). Cells were treated with IL6 for 24 hours, followed by addition of TNFα and antibody 80M2. Attached cells were assayed for apoptosis and total cell number 24 hours and 36 hours later respectively.

CCCC(=O)O [butyric acid]
efficacy in (selective) cell killing of transformed cells [1]: least effective

IL6: cytokine interleukin-6
MCM3AP protein expression (western blot) (MCM3AP): does not stimulate MCM3AP significantly

CC(/C=C/C(=O)NO)=C\[C@@H](C)C(=O)c1ccc(N(C)C)cc1 [TSA, trichostatin A]
live cell number over time (normal WI38 cells; 400 nM TSA in combination with cytokine treatment, compare with t=0 value): reduction in live cell number
effect on / killing of normal WI38 cells (normal WI38 cells): minimal effect
cell death in normal cells (normal WI38 cells): ~20%
effect of TSA at lower concentrations ([1]; 100 nM, 200 nM, 400 nM TSA): concentration dependent
efficacy in (selective) cell killing of transformed cells [1]: efficient in selectively killing transformed cells
transformed cells killed ([1]; three days of cytokine treatment in combination with deacetylase inhibitor (TSA 400 nM; CBHA 2.5 μg/ml; SAHA 5 μg/ml)): 80-90%

TNFα
apoptosis (annexin-V staining) (HEK 293 cells): markedly reduced
MCM3AP protein expression (western blot) (MCM3AP): does not stimulate MCM3AP significantly

O=C(/C=C/c1cccc(C(=O)NO)c1)NO [CBHA, cinnamic acid bishydroxamic acid]
effect on / killing of normal WI38 cells (normal WI38 cells): did not kill primary WI38 cells above background levels

O=C(CCCCCCC(=O)Nc1ccccc1)NO [SAHA, suberoylanilide hydroxamic acid]
cell death in normal cells (normal WI38 cells): ~40%
